In brackets after ≈: the same amount, converted by molar mass. Several values for one entry are separate records, joined by “and”; a condition that tells them apart may be missing. Equal values may be shown once. Read-outs that look alike come from different tables or passages of the source. One block for each compound: values may come before it.
Experiments:
[1] = tested on: CaCo-2 (ATCC HTB-37) colon–rectal cancer cell line; assay: MTT cytotoxicity assay on CaCo-2 cells; type: cell-based, human; conditions: for IC50: Homo sapiens, CaCo-2 cell line, MTT
Description: To fully assess the biological activity of the new molecules, they were tested at different concentrations on the CaCo-2 (ATCC HTB-37) colon–rectal cancer cell line. These human cancer cells were exposed to compound solutions ranging in concentration from 100 µM to 0.01 µM. As a reference compound for these assays, we used 5-Fluorouracil (5-FU), a pyrimidine analog from the antimetabolite family.
The MTT assay was also performed for the selected antibiotics to evaluate the effect of their combined treatment with PB4.
To evaluate the effect of the heteroaryl ethylene compounds and the antibiotics, an MTT ([3-(4,5-dimethylthiazol-2-yl)-2,5-diphenyltetrazolium bromide]) assay was performed as previously described. […] Both concentrations were also tested in combination with PB4 0.2 µM. All antibiotics were provided by Thermo Scientific^TM Oxoid^TM, Basingstoke, UK. Twenty-four hours after plating, the cells were treated with 20 μL of each solution. Untreated cells were used as controls. […] The IC50 values were calculated by nonlinear regression analysis using GraphPad Prism 6.0 software.

[2] = tested on: CaCo2 colon-rectal cancer cell line; parameters: method as in in-house dataset; Log(IC50) 48h: unit not given here; conditions: in-house dataset previously tested by the authors' groups, ref in-house dataset, cited from earlier work; for IC50: 48h
[3] = tested on: S. aureus ATCC29213; conditions: QSAR dataset, cited from earlier work
[4] = tested on: A. baumannii ATCC 17978; assay: Broth microdilution MIC; type: cell-based; conditions: Acinetobacter baumannii, ATCC17978, substance alone
[5] = tested on: S. aureus ATCC BAA-1556 USA300; assay: Broth microdilution MIC; type: cell-based, Staphylococcus aureus; conditions: for MIC: Staphylococcus aureus, S. aureus ATCC BAA-1556 USA300, substance alone
[6] = tested on: S. aureus ATCC 29213; assay: Broth microdilution MIC; type: cell-based; conditions: Staphylococcus aureus
[7] = tested on: E. faecalis ATCC 29212; assay: Broth microdilution MIC; type: cell-based, Enterococcus faecalis; conditions: for MIC: Enterococcus faecalis
[8] = tested on: K. pneumoniae ATCC 700603; assay: Broth microdilution MIC; type: cell-based, Klebsiella pneumoniae; conditions: Klebsiella pneumoniae, ATCC700603, K. pneumoniae ATCC 700603; substance alone; read-out: MIC
[9] = tested on: S. enterica ATCC 14028; assay: Broth microdilution MIC; type: cell-based; conditions: Salmonella enterica, ATCC14028, substance alone
[10] = tested on: S. aureus ATCC 12598; assay: Broth microdilution MIC; type: cell-based, Staphylococcus aureus; conditions: for MIC: Staphylococcus aureus
[11] = tested on: P. aeruginosa ATCC 27853; assay: Broth microdilution MIC; type: cell-based, Pseudomonas aeruginosa; conditions: Pseudomonas aeruginosa, ATCC27853, P. aeruginosa ATCC 27853; substance alone; read-out: MIC
[12] = tested on: E. coli ATCC 25922; assay: Broth microdilution MIC; type: cell-based; conditions: Escherichia coli, ATCC25922, substance alone, read-out: MIC
[13] = tested on: all tested strains; assay: Broth microdilution MIC, summary over all tested strains; type: cell-based; conditions: all tested bacterial strains; antibiotic + PB4
[14] = Caco-2, 24 h, 24 h of treatment, read-out: IC50 at 24 h
[15] = Caco-2, 48 h, 48 h of treatment, read-out: IC50 at 48 h
[16] = in-house database, previously tested, ref Unpublished results
[17] = ATCC29213, S. aureus ATCC 29213, substance alone, read-out: MIC
[18] = ATCC29212, E. faecalis ATCC 29212, substance alone, read-out: MIC
[19] = ATCC12598, S. aureus ATCC 12598, substance alone, read-out: MIC

SMILES: O=c1[nH]cc(F)c(=O)[nH]1 [5-FU, 5-Fluorouracil]
IC50 [1, 14]: ~27 µM
IC50 [1, 15]: 12.9 µM

SMILES: C[n+]1c(/C=C/c2ccc(-c3ccc(N4CCCCC4)s3)s2)ccc2ccccc21 [BC1]
IC50 [2]: 20 µM
Log(IC50) 48h [2]: 1.30

SMILES: CCCCN(CCCC)c1ccc(-c2ccc(/C=C/c3ccc(C(=O)O)c[n+]3C)s2)s1 [BCG3]
IC50 [2]: 8 µM
Log(IC50) 48h [2]: 0.90

SMILES: CC[n+]1ccc2c(c1)CCC/C2=C\c1ccc(N(C)C)cc1 [BCM3]
IC50 [2]: 1.35 µM
Log(IC50) 48h [2]: 0.13
MIC [3, 16]: 64 µg/mL

MIC [4]: ≥ 128 µg/mL and ≥ 350 µM
MIC [5]: 64 µg/mL and 175 µM
MIC [6, 17]: 128 µg/mL and 350 µM
MIC [7, 18]: ≥ 128 µg/mL and ≥ 350 µM
MIC [8]: > 128 µg/mL and ≥ 350 µM
MIC [9]: > 128 µg/mL and ≥ 350 µM
MIC [10, 19]: 64 µg/mL and 175 µM
MIC [11]: > 128 µg/mL and ≥ 350 µM
MIC [12]: ≥ 128 µg/mL and ≥ 350 µM
SMILES: CN(C)c1ccc(/C=C/c2cccc[n+]2C)cc1 [BCM4]
IC50 [1, 14]: 0.72 µM
IC50 [1, 15]: 0.1 µM

SMILES: C[n+]1c(/C=C/c2cc(Cl)ccc2O)cccc1/C=C/c1cc(Cl)ccc1O [BCM12]
MIC [3, 16]: > 128 µg/mL

SMILES: CC[n+]1ccc2c(c1)CCC/C2=C\c1ccccc1O [BCNAc1]
MIC [3, 16]: > 128 µg/mL

SMILES: C[n+]1ccccc1/C=C/c1ccc2ccc3c4c2c1C=CC4C=CC3 (stereo not drawn) [GC VI 3]
IC50 [2]: 0.9 µM
Log(IC50) 48h [2]: -0.0458

SMILES: C[n+]1c(/C=C/c2ccc(N(c3ccccc3)c3ccccc3)cc2)ccc2ccccc21 [GC VI 14]
IC50 [2]: 4 µM
Log(IC50) 48h [2]: 0.602

SMILES: CN(C)c1ccc(/C=C/c2cc[n+](C)cc2)cc1 [GC VI 17]
IC50 [2]: 8 µM
Log(IC50) 48h [2]: 0.903

SMILES: CN(C)c1ccc(/C=C/C=C/c2cc[n+](C)cc2)cc1 [GC VI 45]
IC50 [2]: 16 µM
Log(IC50) 48h [2]: 1.20

SMILES: C[n+]1c(/C=C/c2ccnc(-c3cc(/C=C/c4ccc5ccccc5[n+]4C)ccn3)c2)ccc2ccccc21 [GC VI 71]
IC50 [2]: 51.2 µM
Log(IC50) 48h [2]: 1.71

SMILES: CCOC(=O)C(C#N)c1ccc(/C=C/c2cc[n+](C)cc2)n1C (stereo not drawn) [GC VII 16]
IC50 [2]: 70 µM
Log(IC50) 48h [2]: 1.85

SMILES: C[n+]1ccccc1/C=C/c1ccc2ccccc2c1 [GC VII 46]
IC50 [2]: 5.5 µM
Log(IC50) 48h [2]: 0.740

SMILES: C[n+]1ccccc1/C=C/c1ccc(N(c2ccccc2)c2ccccc2)cc1 [GC VII 47]
IC50 [2]: 1 µM
Log(IC50) 48h [2]: 0

MIC [4]: ≥ 128 µg/mL and ≥ 244 µM
MIC [5]: > 128 µg/mL and > 244 µM
MIC [6, 17]: 128 µg/mL and 244 µM
MIC [7, 18]: 16 µg/mL and 30.4 µM
MIC [8]: ≥ 128 µg/mL and ≥ 244 µM
MIC [9]: ≥ 128 µg/mL and ≥ 244 µM
MIC [10, 19]: 32 µg/mL and 60.9 µM
MIC [11]: ≥ 128 µg/mL and ≥ 244 µM
MIC [12]: ≥ 128 µg/mL
SMILES: C[n+]1c(/C=C/c2ccc3ccccc3c2)cccc1/C=C/c1ccc2ccccc2c1 [GC-VII-39]
IC50 [1, 14]: 0.23 µM
IC50 [1, 15]: 0.18 µM

SMILES: CN(C)c1ccc(/C=C/C=C/c2cccc[n+]2C)cc1 [GF I 25]
IC50 [2]: 10 µM
Log(IC50) 48h [2]: 1

SMILES: Cn1c(/C=C/c2ccncc2)ccc1/C=C/c1cc[n+](C)cc1 [GF I 30]
IC50 [2]: 50 µM
Log(IC50) 48h [2]: 1.70

SMILES: Cn1c(/C=C/C2=C(C#N)C(=C(C#N)C#N)OC2(C)C)ccc1/C=C/c1cc[n+](C)cc1 [GF I 32]
IC50 [2]: 32 µM
Log(IC50) 48h [2]: 1.51

SMILES: CC(=O)NC[C@H]1CN(c2ccc(N3CCOCC3)c(F)c2)C(=O)O1 [Linezolid, linezolid, reference compound]
MIC [5]: 2 µg/mL (≈ 5.93 µM)
MIC [6, 17]: 4 µg/mL (≈ 11.9 µM)
MIC [7, 18]: 4 µg/mL (≈ 11.9 µM)
MIC [10, 19]: 4 µg/mL (≈ 11.9 µM)
MIC reduction in combination with PB4 [13]: no significant MIC reductions

SMILES: CCCCN(CCCC)c1ccc(-c2ccc(/C=C/c3ccc4ccccc4[n+]3C)s2)s1 [PB2]
MIC [3]: 4 µg/mL

MIC [4]: ≤ 0.125 µg/mL and ≤ 0.24 µM
MIC [5]: ≤ 0.125 µg/mL and ≤ 0.24 µM
MIC [6, 17]: 0.125 µg/mL and 0.24 µM
Reduction of PB4 MIC in combination with GC-VI-70 ([7]; E. faecalis ATCC 29212): 2 logs
MIC of PB4 + GC-VI-70 combination ([7]; E. faecalis ATCC 29212, PB4 fixed at its MIC for the strain, GC-VI-70 128 to 0.125 mg/L): 0.06 µg/mL
MIC [7, 18]: 0.5 µg/mL and 0.98 µM
MIC [8]: 64 µg/mL and 125 µM
MIC [9]: 64 µg/mL and 125 µM
Reduction of PB4 MIC in combination with GC-VI-70 ([10]; S. aureus ATCC 12598): 2 logs
MIC of PB4 + GC-VI-70 combination ([10]; S. aureus ATCC 12598, PB4 fixed at its MIC for the strain, GC-VI-70 128 to 0.125 mg/L): 0.06 µg/mL
MIC [10, 19]: 0.25 µg/mL and 0.49 µM
MIC [11]: > 128 µg/mL and > 250 µM
MIC [12]: 2 µg/mL and 3.91 µM
SMILES: CN(C)c1ccc(/C=C/c2cccc(/C=C/c3ccc(N(C)C)cc3)[n+]2C)cc1 [PB4]
MIC [3]: 0.25 µg/mL
Percentage of cell growth, PB4 0.2 µM ([1]; CaCo-2, PB4 alone 0.2 µM, 48 h): 72.7%
IC50 [1, 14]: 0.31 µM
IC50 [1, 15]: 0.3 µM

SMILES: C[n+]1ccc(/C=C/c2ccc(-c3cc(Cl)ccc3Cl)o2)cc1 [PB6]
MIC [3]: 4 µg/mL

SMILES: CC[n+]1ccc2c(c1)CCC/C2=C\c1ccc(-c2ccc(Cl)cc2)o1 [PB7]
MIC [3]: 4 µg/mL

SMILES: CCCCN(CCCC)c1ccc(-c2ccc(/C=C3\CCCc4c[n+](CC)ccc43)s2)s1 [PB8]
MIC [3]: 2 µg/mL

SMILES: CO[C@H]1/C=C/O[C@@]2(C)Oc3c(C)c(O)c4c(O)c(c(/C=N/N5CCN(C)CC5)c(O)c4c3C2=O)NC(=O)/C(C)=C\C=C\[C@H](C)[C@H](O)[C@@H](C)[C@@H](O)[C@@H](C)[C@H](OC(C)=O)[C@@H]1C [Rifampin, rifampin, reference compound]
Reduction of antibiotic MIC by PB4 ([5]; S. aureus USA 300, antibiotic + PB4 vs antibiotic alone): 4 -fold log reduction
MIC [5]: 0.125 µg/mL (≈ 0.152 µM)
MIC ([6]; ATCC29213): 0.125 µg/mL (≈ 0.152 µM)
MIC of antibiotic in combination with PB4 ([7]; E. faecalis ATCC 29212, PB4 at fixed 0.125 μg/mL (0.24 μM), a quarter of an MIC value): 0.006 µg/mL
Reduction of antibiotic MIC by PB4 ([7]; E. faecalis ATCC 29212, antibiotic + PB4 vs antibiotic alone): 2 -fold log reduction
MIC ([7]; ATCC29212): 0.125 µg/mL (≈ 0.152 µM)
MIC [7, 18]: 0.25 µg/mL (≈ 0.304 µM)
Percentage of cell growth, antibiotic ([1]; CaCo-2, antibiotic alone at MIC for E. faecalis ATCC 29212, 24 h): 133.7%
Percentage of cell growth, antibiotic ([1]; CaCo-2, antibiotic alone at MIC for E. faecalis ATCC 29212, 48 h): 282.6%
Percentage of cell growth, antibiotic ([1]; CaCo-2, antibiotic alone at sub-MIC (half-MIC), 24 h): 146.6%
Percentage of cell growth, antibiotic ([1]; CaCo-2, antibiotic alone at sub-MIC (half-MIC), 48 h): 265.6%
Percentage of cell growth, antibiotic + PB4 0.2 µM ([1]; CaCo-2, antibiotic at MIC + PB4 0.2 µM, 24 h): 126.9%
Percentage of cell growth, antibiotic + PB4 0.2 µM ([1]; CaCo-2, antibiotic at MIC + PB4 0.2 µM, 48 h): 158.9%
Percentage of cell growth, antibiotic + PB4 0.2 µM ([1]; CaCo-2, antibiotic at sub-MIC + PB4 0.2 µM, 24 h): 130.6%
Percentage of cell growth, antibiotic + PB4 0.2 µM ([1]; CaCo-2, antibiotic at sub-MIC + PB4 0.2 µM, 48 h): 163.7%
MIC ([10]; ATCC12598): 0.125 µg/mL (≈ 0.152 µM)

SMILES: CCn1cc(/C=C/c2sc3ccccc3[n+]2CC)c2ccccc21 [SBT, reference compound]
MIC [3]: 1 µg/mL

SMILES: CCn1cc(/C=C/c2ccc3ccccc3[n+]2CC)c2ccccc21 [SQL, reference compound]
MIC [3]: 4 µg/mL

— article PMC10451629, “Evaluation of the Effects of Heteroaryl Ethylene Molecules in Combination with Antibiotics: A Preliminary Study on Control Strains” (Antibiotics, 2023)
